This note sets out measurements from ChEMBL document CHEMBL4359822, “Design, synthesis of 4,5-diazafluorene derivatives and their anticancer activity via targeting telomeric DNA G-quadruplex” (Eur J Med Chem, 2019).

Data set [1] relates to A549. In words: Antiproliferative activity against human A549 cells at 10 uM incubated for 36 hrs by CCK8 assay. The class given is functional, cell-based.
Data set [2] has as its system MCF7. In words: Antiproliferative activity against human MCF7 cells at 10 uM incubated for 36 hrs by CCK8 assay. The class given is functional, cell-based. In general terms: Tetrazolium dyes change colour on reduction, which living cells bring about.
In data set [3] the test system is AGS. In words: Antiproliferative activity against human AGS cells at 10 uM incubated for 36 hrs by CCK8 assay. The class given is functional, cell-based.
The test system of data set [4] is HepG2. In words: Antiproliferative activity against human HepG2 cells at 10 uM incubated for 36 hrs by CCK8 assay. The class given is functional, cell-based.
For data set [5], the target named is Telomerase reverse transcriptase (Homo sapiens) (UniProt O14746). The data set is described as follows: Inhibition of telomerase activity in human A549 cells at 2 to 8 uM by TRAP assay. In kind it is cell-based.
For data set [6], the system named is MCF7. In words: Antiproliferative activity against human MCF7 cells incubated for 36 hrs by CCK8 assay. As to conditions: MCF7, 36 h. The class given is functional, cell-based.
The nature of data set [7]: Binding affinity to Tel-26nt G-rich DNA (unknown origin) assessed as change in melting temperature at 2 uM by UV-vis spectrophotometry (reference value: 38.33 +/- 0.07 degreeC).
Data set [8] deals with AGS. In words: Inhibition of cell migration in human AGS cells at 0.1 uM incubated for 48 hrs by wound healing assay relative to control. The class given is functional.
Data set [9] concerns HepG2. The data set is described as follows: Inhibition of cell migration in human HepG2 cells at 0.1 uM incubated for 48 hrs by wound healing assay relative to control. In kind it is functional. As to conditions: HepG2, 48 h.
In data set [10] the test system is MRC5. The data set is described as follows: Antiproliferative activity against human MRC5 cells incubated for 36 hrs by CCK8 assay. The class given is cell-based. As to conditions: MRC5, 36 h.
For data set [11], the system named is MCF7. The data set is described as follows: Inhibition of cell migration in human MCF7 cells at 0.4 uM incubated for 48 hrs by wound healing assay relative to control. In kind it is functional. As to conditions: MCF7, 48 h.
Data set [12] in a line: Selectivity index, ratio of IC50 for human MRC5 cells to IC50 for human AGS cells. The class given is toxicity. As to conditions: MRC5 cells versus AGS cells, read-out: Ratio IC50.
The nature of data set [13]: Binding affinity to Tel-26nt G-rich DNA (unknown origin) assessed as change in melting temperature by UV-vis spectrophotometry.
Data set [14] has as its system A549. In words: Inhibition of cell migration in human A549 cells at 0.2 uM incubated for 48 hrs by wound healing assay relative to control. The class given is functional. As to conditions: A549, 48 h.
The nature of data set [15]: Selectivity index, ratio of IC50 for human MRC5 cells to IC50 for human MCF7 cells. The class given is toxicity. As to conditions: MRC5 cells versus MCF7 cells, read-out: Ratio IC50.
In data set [16] the test system is HepG2. In words: Inhibition of cell migration in human HepG2 cells at 0.4 uM incubated for 48 hrs by wound healing assay relative to control. In kind it is functional. As to conditions: HepG2, 48 h.
Data set [17] is described as follows: Binding affinity to Tel-26nt G-rich DNA (unknown origin) incubated for 24 hrs by EMSA. Background: A gel shift assay detects complexes by their altered migration in electrophoresis.
In data set [18] the test system is A549. In words: Inhibition of cell migration in human A549 cells at 0.1 uM incubated for 48 hrs by wound healing assay relative to control. In kind it is functional. As to conditions: A549, 48 h.
Data set [19] deals with A549. The data set is described as follows: Inhibition of cell migration in human A549 cells at 0.4 uM incubated for 48 hrs by wound healing assay relative to control. In kind it is functional. As to conditions: A549, 48 h.
Data set [20] in a line: Selectivity index, ratio of IC50 for human MRC5 cells to IC50 for human HEPG2 cells.
Data set [21] relates to MCF7. In words: Inhibition of cell migration in human MCF7 cells at 0.1 uM incubated for 48 hrs by wound healing assay relative to control. The class given is functional. As to conditions: MCF7, 48 h.
In data set [22] the test system is MCF7. In words: Inhibition of cell migration in human MCF7 cells at 0.2 uM incubated for 48 hrs by wound healing assay relative to control. In kind it is functional. As to conditions: MCF7, 48 h.
The subject of data set [23] is HepG2. The data set is described as follows: Antiproliferative activity against human HepG2 cells incubated for 36 hrs by CCK8 assay. In kind it is functional, cell-based. As to conditions: HepG2, 36 h.
Data set [24] has as its system HepG2. The data set is described as follows: Inhibition of cell migration in human HepG2 cells at 0.2 uM incubated for 48 hrs by wound healing assay relative to control. In kind it is functional. As to conditions: HepG2, 48 h.
The test system of data set [25] is AGS. In words: Antiproliferative activity against human AGS cells incubated for 36 hrs by CCK8 assay. The class given is functional, cell-based.
Data set [26] in a line: Binding affinity to Tel-26nt G-rich DNA (unknown origin) assessed as change in melting temperature at 4 uM by UV-vis spectrophotometry (reference value: 38.33 +/- 0.07 degreeC).
Data set [27] has as its system A549. The data set is described as follows: Antiproliferative activity against human A549 cells incubated for 36 hrs by CCK8 assay. As to conditions: A549, 36 h. In kind it is functional, cell-based.
The test system of data set [28] is AGS. The data set is described as follows: Inhibition of cell migration in human AGS cells at 0.4 uM incubated for 48 hrs by wound healing assay relative to control. The class given is functional.
Data set [29] relates to AGS. In words: Inhibition of cell migration in human AGS cells at 0.2 uM incubated for 48 hrs by wound healing assay relative to control. The class given is functional.
A short description of data set [30]: Selectivity index, ratio of IC50 for human MRC5 cells to IC50 for human A549 cells. In kind it is toxicity. As to conditions: MRC5 cells versus A549 cells, read-out: Ratio IC50.
Data set [31] can be described thus: Binding affinity to Tel-26nt G-rich DNA (unknown origin) assessed as change in melting temperature at 8 uM by UV-vis spectrophotometry (reference value: 38.33 +/- 0.07 degreeC).
Data set [32] can be described thus: Binding affinity to Tel-26nt G-rich DNA (unknown origin) at => 3 uM incubated for 24 hrs by EMSA.
Data set [33] in a line: Binding affinity to Tel26nt double stranded DNA (unknown origin) at 4 to 16 uM measured after each titration for 15 mins during 24 hrs incubation by circular dichroism analysis. (Circular dichroism is the unequal absorption of left and right circularly polarised light.)
The nature of data set [34]: Binding affinity to Tel-26nt mutated-single-stranded DNA (unknown origin) at 4 to 16 uM measured after each titration for 15 mins during 24 hrs incubation by circular dichroism analysis.
The nature of data set [35]: Binding affinity to Tel-26nt G-rich DNA (unknown origin) at 0.25 :1 to 6 : 1 ratio of test compound to DNA measured after each titration for 15 mins during 24 hrs incubation by circular dichroism analysis.
A short description of data set [36]: Binding affinity to Tel-26nt G-rich DNA (unknown origin) at 4 to 16 uM measured after each titration for 15 mins during 24 hrs incubation by circular dichroism analysis.

Each structure is given as a SMILES string. pIC50: −log10 of the molar value. Calls of active or inactive are those of the source. The rule behind the calls is not given here.

As a reminder, the inhibition is the percentage by which the read-out fell short of the control. For orientation: pIC50 means −log10 of the IC50, conventionally taken in molar units. A high value points to a low IC50.

Sequence of Telomerase reverse transcriptase (Homo sapiens) (O14746 whole entry): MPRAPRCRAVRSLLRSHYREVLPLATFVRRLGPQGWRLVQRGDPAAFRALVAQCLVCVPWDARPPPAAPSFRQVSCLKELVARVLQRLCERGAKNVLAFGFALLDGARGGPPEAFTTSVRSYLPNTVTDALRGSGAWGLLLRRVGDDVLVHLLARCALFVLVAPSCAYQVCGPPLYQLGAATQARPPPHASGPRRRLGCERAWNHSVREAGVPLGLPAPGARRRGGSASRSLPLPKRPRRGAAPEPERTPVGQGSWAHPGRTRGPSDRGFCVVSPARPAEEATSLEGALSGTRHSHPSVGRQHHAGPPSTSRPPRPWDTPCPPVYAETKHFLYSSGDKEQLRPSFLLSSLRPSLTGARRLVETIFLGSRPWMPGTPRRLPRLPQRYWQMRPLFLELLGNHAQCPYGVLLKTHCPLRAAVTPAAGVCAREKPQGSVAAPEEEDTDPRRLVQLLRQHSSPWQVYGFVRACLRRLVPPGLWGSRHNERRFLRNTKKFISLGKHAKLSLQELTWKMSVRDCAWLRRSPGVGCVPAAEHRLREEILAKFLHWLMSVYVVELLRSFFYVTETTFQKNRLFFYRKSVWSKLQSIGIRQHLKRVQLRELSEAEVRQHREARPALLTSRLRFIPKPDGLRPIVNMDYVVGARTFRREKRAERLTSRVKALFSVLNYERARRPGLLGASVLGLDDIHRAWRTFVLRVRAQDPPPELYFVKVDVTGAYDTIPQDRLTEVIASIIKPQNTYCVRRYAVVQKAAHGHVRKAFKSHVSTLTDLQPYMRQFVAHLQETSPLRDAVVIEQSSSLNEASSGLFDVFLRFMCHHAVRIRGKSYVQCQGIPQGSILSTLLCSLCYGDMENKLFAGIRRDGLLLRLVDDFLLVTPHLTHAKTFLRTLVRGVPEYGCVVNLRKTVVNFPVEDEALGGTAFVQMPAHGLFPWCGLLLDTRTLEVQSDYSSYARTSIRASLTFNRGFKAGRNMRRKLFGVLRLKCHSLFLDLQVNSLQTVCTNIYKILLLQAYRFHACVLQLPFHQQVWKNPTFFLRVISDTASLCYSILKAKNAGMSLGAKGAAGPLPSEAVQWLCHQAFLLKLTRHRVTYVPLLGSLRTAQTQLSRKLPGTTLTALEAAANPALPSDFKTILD

Take `Cc1ccc(-c2nn(Cc3ccccc3)cc2C=C2c3cccnc3-c3ncccc32)cc1`: the “growth inhibition (GI)” value in data set [1], in data set [2], in [3] and in data set [4] was “Active” each time.
Turning to `O=[N+]([O-])c1ccc(-n2cc(C=C3c4cccnc4-c4ncccc43)c(-c3ccc(Cl)cc3)n2)c([N+](=O)[O-])c1`, the “growth inhibition (GI)” value in data set [1], in [2], in data set [3] and in data set [4] was “Active” throughout.
For `Cc1ccc(-c2nnc(CN3C(=O)C(=C4c5cccnc5-c5ncccc54)SC3=S)o2)cc1`, the “growth inhibition (GI)” value in [1], in [2], in data set [3] and in [4] was “Active” throughout.
For `Brc1ccc(-c2n[nH]cc2C=C2c3cccnc3-c3ncccc32)cc1`, the “growth inhibition (GI)” value in [1], in data set [2], in [3] and in [4] was “Active” each time.
`Brc1ccc(-c2nn(Cc3ccccc3)cc2C=C2c3cccnc3-c3ncccc32)cc1`: the “growth inhibition (GI)” value in data set [1], in data set [2], in data set [3] and in data set [4] was “Active” in each case.
On to `O=[N+]([O-])c1ccc(-n2cc(C=C3c4cccnc4-c4ncccc43)c(-c3ccc(Br)cc3)n2)c([N+](=O)[O-])c1`, for which the “growth inhibition (GI)” value in data set [1], in [2], in data set [3] and in data set [4] was “Active” each time.
As for `O=[N+]([O-])c1ccc(-n2cc(C=C3c4cccnc4-c4ncccc43)c(-c3ccc(F)cc3)n2)c([N+](=O)[O-])c1`, the “growth inhibition (GI)” value in data set [1], in [2], in [3] and in [4] was “Active” in each case.
Regarding `Clc1ccc(-c2n[nH]cc2C=C2c3cccnc3-c3ncccc32)cc1`, the “growth inhibition (GI)” value in data set [1], in data set [2], in data set [3] and in data set [4] was “Active” each time.
Turning to `Fc1ccc(-c2nn(Cc3ccccc3)cc2C=C2c3cccnc3-c3ncccc32)cc1`, the “growth inhibition (GI)” value in data set [1], in data set [2], in [3] and in data set [4] was “Active” each time.
For `CN(C)CCCn1cc(C=C2c3cccnc3-c3ncccc32)c(-c2ccc(F)cc2)n1`, the inhibition entry in [5] was “Active”. In addition, the pIC50 was 5.17 in data set [6]; 5.23 in [10]; 5.48 in data set [23]; 5.53 in [25]; 5.46 in [27]. Besides, the figures for the Tm in [7], in data set [26] and in data set [31] were 44 °C, 44 °C and 62.7 °C, respectively. The inhibition at 0.1 µM was determined as 44.5% in data set [8], 22.4% in [9], 18.3% in data set [18] and 24.9% in data set [21]. For the same compound, the “growth inhibition (GI)” value in [1], in data set [2], in data set [3] and in data set [4] was “Active” throughout. For the same compound, the inhibition at 0.4 µM was determined as 63.9% in data set [11], 69.9% in data set [16], 74.5% in data set [19] and 81.6% in data set [28]. For the same compound, the figures for the selectivity ratio in data set [12], in data set [15] and in [30] were 2.02, 0.88 and 1.72, respectively. For the same compound, in [13], the deltaTm entry is “Dose-dependent effect”. Further, the inhibition at 0.2 µM in data set [14] was determined as 47.9%; in [22], 45.7%; in data set [24], 53.7%; in data set [29] it was 67.8%. In data set [17], the Activity entry was “Dose-dependent effect”. The “Ratio IC50” value in data set [20] amounted to 1.79. For the same compound, the result in [32] was Active.
On to `O=C1C(=C2c3cccnc3-c3ncccc32)SC(=S)N1Cc1nnc(-c2ccc(Br)cc2)o1`, for which the Tm in data set [7] amounted to 43.1 °C; in data set [26], 56.1 °C; in data set [31] it was 47 °C. Further, the “growth inhibition (GI)” value in data set [1], in data set [2], in data set [3] and in data set [4] was “Active” in each case. The deltaTm entry in data set [13] was “Dose-dependent effect”. The result in data set [33], in [34] and in [32] was inactive. The Activity result in data set [17] is “Dose-dependent effect”. For the same compound, the outcome in [35] and in data set [36] was Active.
As to `Clc1ccc(-c2nn(Cc3ccccc3)cc2C=C2c3cccnc3-c3ncccc32)cc1`, the “growth inhibition (GI)” value in data set [1], in data set [2], in [3] and in data set [4] was “Active” throughout.
`O=C(O)CN1C(=O)C(=C2c3cccnc3-c3ncccc32)SC1=S`: the “growth inhibition (GI)” value in data set [1], in data set [2], in data set [3] and in data set [4] was “Active” throughout.
`Cc1ccc(-c2n[nH]cc2C=C2c3cccnc3-c3ncccc32)cc1`: the “growth inhibition (GI)” value in data set [1], in data set [2], in data set [3] and in data set [4] was “Active” throughout.
On to `Fc1ccc(-c2n[nH]cc2C=C2c3cccnc3-c3ncccc32)cc1`, for which the “growth inhibition (GI)” value in data set [1], in [2], in data set [3] and in data set [4] was “Active” in each case.
As for `Cc1ccc(-c2nn(-c3ccc([N+](=O)[O-])cc3[N+](=O)[O-])cc2C=C2c3cccnc3-c3ncccc32)cc1`, the “growth inhibition (GI)” value in data set [1], in data set [2], in data set [3] and in data set [4] was “Active” each time.
`O=C1C(=C2c3cccnc3-c3ncccc32)SC(=S)N1Cc1nnc(-c2ccc(Cl)cc2)o1`: the “growth inhibition (GI)” value in data set [1], in [2], in [3] and in data set [4] was “Active” in each case.
